According to PubChem BioAssay AID1963825 (Molecular Pharmacology Branch, DTP, NCI, 2024):

Test: Anticancer human tumor 997537-175-T-J1-PDC patient-derived colon adenocarcinoma cell line growth inhibition [POLQ]
Conditions: 997537-175-T-J1-PDC complex spheroid viability, combination with POLQ inhibitors; for IC50: curve of first compound; for viability, T/C: stronger effect = lower value
Summary of the method: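 Three-cell-type spheroids modelling solid tumor plus stroma served as the readout system; POL inhibitors were tested individually and in combination, concentration ranges set by clinical Cmax where known.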
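Further: luminescence signal used as a surrogate for viable cells; spheroids exposed to drugs for seven days before readout.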

Compound `CC(=O)O[C@H]1C(=O)[C@@]2(C)[C@H]([C@H](OC(=O)c3ccccc3)[C@]3(O)C[C@H](OC(=O)[C@H](O)[C@@H](NC(=O)c4ccccc4)c4ccccc4)C(C)=C1C3(C)C)[C@]1(OC(C)=O)CO[C@@H]1C[C@@H]2O` + Nc1ccc(C#CCN(C(=O)Cc2ncc(C(F)(F)F)cc2C(F)(F)F)c2ccc(F)cc2)nn1 has an IC50 (second compound 0.0316 µM) of 27 nM, an IC50 (second compound 0.1 µM) of 50.1 nM and an IC50 (second compound 0.316 µM) of 16.8 nM. It also gave an IC50 (second compound 1 µM) of 14.8 nM, an IC50 (second compound 3.16 µM) of 32.5 nM and an IC50 (second compound 10 µM) of 18.5 nM. The viability, T/C (second compound 0.0316 µM, first compound 0.00949 µM) was 50.5%, the viability, T/C (second compound 0.0316 µM, first compound 0.03 µM) was 57.6% and the viability, T/C (second compound 0.0316 µM, first compound 0.0949 µM) was 32.5%. The viability, T/C (second compound 0.0316 µM, first compound 0.3 µM) was 55.7%, the viability, T/C (second compound 0.0316 µM, first compound 0.949 µM) was 33.8% and the viability, T/C (second compound 0.0316 µM, first compound 3 µM) was 34.3%. It also gave a viability, T/C (second compound 0.1 µM, first compound 0.00949 µM) of 70%, a viability, T/C (second compound 0.1 µM, first compound 0.03 µM) of 28.4% and a viability, T/C (second compound 0.1 µM, first compound 0.0949 µM) of 58%. It also gave a viability, T/C (second compound 0.1 µM, first compound 0.3 µM) of 46.9%, a viability, T/C (second compound 0.1 µM, first compound 0.949 µM) of 23.3% and a viability, T/C (second compound 0.1 µM, first compound 3 µM) of 23.3%. For the same compound, the viability, T/C (second compound 0.316 µM, first compound 0.00949 µM) was 69.7%, the viability, T/C (second compound 0.316 µM, first compound 0.03 µM) was 27.3% and the viability, T/C (second compound 0.316 µM, first compound 0.0949 µM) was 27.9%. For the same compound, the viability, T/C (second compound 0.316 µM, first compound 0.3 µM) was 16.8%, the viability, T/C (second compound 0.316 µM, first compound 0.949 µM) was 41.3% and the viability, T/C (second compound 0.316 µM, first compound 3 µM) was 37.1%. For the same compound, the viability, T/C (second compound 1 µM, first compound 0.00949 µM) was 55.2%, the viability, T/C (second compound 1 µM, first compound 0.03 µM) was 44.6% and the viability, T/C (second compound 1 µM, first compound 0.0949 µM) was 31.6%. The viability, T/C (second compound 1 µM, first compound 0.3 µM) was 25.8%, the viability, T/C (second compound 1 µM, first compound 0.949 µM) was 30.1% and the viability, T/C (second compound 1 µM, first compound 3 µM) was 38.3%. The viability, T/C (second compound 3.16 µM, first compound 0.00949 µM) was 54.5%, the viability, T/C (second compound 3.16 µM, first compound 0.03 µM) was 48.2% and the viability, T/C (second compound 3.16 µM, first compound 0.0949 µM) was 44.2%. For the same compound, the viability, T/C (second compound 3.16 µM, first compound 0.3 µM) was 36%, the viability, T/C (second compound 3.16 µM, first compound 0.949 µM) was 24.6% and the viability, T/C (second compound 3.16 µM, first compound 3 µM) was 31%. The viability, T/C (second compound 10 µM, first compound 0.00949 µM) was 68.6%, the viability, T/C (second compound 10 µM, first compound 0.03 µM) was 35.8% and the viability, T/C (second compound 10 µM, first compound 0.0949 µM) was 37.6%. It also gave a viability, T/C (second compound 10 µM, first compound 0.3 µM) of 33.4%, a viability, T/C (second compound 10 µM, first compound 0.949 µM) of 38.5% and a viability, T/C (second compound 10 µM, first compound 3 µM) of 23.9%.
